Here are results for two compounds from article PMC11653251 (2024).

Assay [1] has as its system (AT)6 (DNA, duplex) ATATATATATAT
The assay can be described thus: UV-vis absorption titration, Bard fit. The following applies: K+ (50 mM potassium phosphate), complex 10 μM, average of two titrations, [DNA] per nucleobase (stated for st-DNA).

Assay [2] deals with (GC)6 (DNA, duplex) GCGCGCGCGCGC
The experiment in a line: UV-vis absorption titration, Bard fit. As to conditions: K+ (50 mM potassium phosphate), complex 10 μM, average of two titrations, [DNA] per nucleobase (stated for st-DNA).

Regarding `Cc1cnc2c(ccc3c(C)c(C)cnc32)c1C.Cc1cnc2c(ccc3c(C)c(C)cnc32)c1C.[Cr+3].c1ccc2cc3nc4c5cccnc5c5ncccc5c4nc3cc2c1` [Λ-1], the Kb in assay [1] is on record as 11.8 ± 0.35 × 10^6 M^-1; in assay [2] it was 2.39 ± 0.32 × 10^6 M^-1.
The corresponding values for `Cc1cnc2c(ccc3c(C)c(C)cnc32)c1C.Cc1cnc2c(ccc3c(C)c(C)cnc32)c1C.[Cr+3].c1ccc2cc3nc4c5cccnc5c5ncccc5c4nc3cc2c1` [Δ-1] are 1.13 ± 0.24 × 10^6 M^-1 and 1.17 ± 0.53 × 10^6 M^-1.
